Measured values as given in patent US3953497A, “2,4,6-Triiodo-5-methoxyacetamido-N-methylisophthalamic acid and salts, acyl halides and esters thereof” (Mallinckrodt, Inc., priority 1974, dated 1976).

Columns and labels:
[1] = Solubility of the sodium salt in water; type: physicochemical
Description: 2,4,6-Triiodo-5-methoxyacetamido-N-methylisophthalamic acid (6.005 g.) was dissolved in water with NaOH solution at pH 7.4 to form a supersaturated solution (7.0 ml.). When the solution was allowed to stand at room temperature overnight, crystallization occurred. The crystals were collected and dried.
The sodium salt (2.71 g.) was then dissolved in water to form an 82% w/v solution (3.3 ml.). After the solution was allowed to stand at 24° overnight some crystallization occurred. The solution was stirred and the supernatant was taken (by centrifugation) for specific gravity measurement (sp. gr. 1.43) and for water determination (found, […] by Karl Fischer method). The solubility of the sodium salt in water was therefore determined to be about 70% w/v at 24°.

rats = details: Priewe et al., DAS 1,129,260/1962; cited from earlier work
dogs = details: Pfeiffer et al., DOS 2,118,219/1972; cited from earlier work
man = details: Pfeiffer et al., DOS 2,118,219/1972; cited from earlier work
[2] = system: Swiss Albino mice (Charles River); test: Acute Intravenous Toxicity Studies in Mice (LD50); type: in vivo; details: lateral tail vein, 1 ml/min, solutions containing 28.27% of iodine, seven day observation
Description: (§1) The techniques utilized are outlined below.
I. Acute Intravenous Toxicity Studies in Mice
Swiss Albino mice (Charles River) were dosed in the lateral tail vein with solutions of the iodinated compound containing 28.27% of iodine, injected at the rate of 1 ml/min. […] The LD50 values were calculated by the method of Litchfield and Wilcoxon (J. of Pharmac. and Exptl. Therap. 96:99-113, 1949).

in vivo [3] = details: mouse, intracerebral, fixed volumes of various concentrations, seven day observation, meglumine salt, read-out: LD50 of Meglumine Salt, Intracerebral (Mice)
Description: as §1
II. Intracerebral Toxicity in Mice
Swiss Albino mice (Charles River) were used. […] The animals were observed immediately after injections and daily throughout a seven day observation period.

in vivo [4] = details: rat, intracisternal, two day observation, meglumine salt, read-out: LD50 of Meglumine Salt, Intracisternal (Rats)
Description: as §1
III. Intracisternal Toxicity in Rats
Sprague Dawley (Carworth) rats were used. […] After dosing, the animals were housed individually, and observed for immediate reactions and periodically for a two day observation period.

CNC(=O)c1c(I)c(NC(=O)COC)c(I)c(C(=O)[O-])c1I.[Na+]
solubility thermodynamic ([1]; 24°, sodium salt, from specific gravity and Karl Fischer water of supernatant): ~700 mg/mL | temperature dependence of solubility ([1]; sodium salt in water): highly temperature dependent

COCC(=O)Nc1c(I)c(NC(C)=O)c(I)c(C(=O)O)c1I [3-acetamido-5-methoxyacetamido-2,4,6-triiodobenzoic acid]
LD50 (i.v. in rats) (rats): 16000 mg/kg | circulatory disturbances in dogs (dogs): strong circulatory disturbances | circulatory disturbances in man (man): strong circulatory disturbances

CNC(=O)c1c(I)c(NC(C)=O)c(I)c(C(=O)O)c1I [Iothalamic Acid, 5-acetamido-2,4,6-triiodo-N-methylisophthalamic acid, reference compound]
LD50 of Meglumine Salt, I.V. (Mice) [2]: 5742 mg. contained iodine/kg. anima

CNC(=O)c1c(I)c(NC(=O)COC)c(I)c(C(=O)O)c1I [meglumine 2,4,6-triiodo-5-methoxyacetamido-N-methylisophthalamate]
LD50 of Meglumine Salt, I.V. (Mice) [2]: 6700 mg. contained iodine/kg. anima | LD50 at 168 h (in vivo [3]): 700 mg/kg | LD50 at 48 h (in vivo [4]): 40 mg/kg
